In US11472788B2, “Benzoimidazoles as selective inhibitors of indoleamine 2,3-dioxygenases” (BEIGENE, LTD., priority 2017, dated 2022):

Legend:
[1] = target: Recombinant IDO1 (Homo sapiens (Human), UniProt P14902); test: IDO1 enzymatic assay; format: biochemical; settings: 50 nM IDO1, 1.3 mM D-tryptophan, pH 7.5, read-out: Enzyme assay IC50
Description: Recombinant IDO1 was overexpressed and purified from E. coli cells with an N-terminal His tag. IDO1 enzymatic assay was carried out using a methodology similar to described in the literature (J. Biol. Chem. (1980), 255, 1339-1345). The reaction mixture contains 50 nM IDO1, 1.3 mM D-tryptophan, 5 mM L-ascorbic acid, […] methylene Blue, 0.4 mg/mL catalase and compound (or DMSO) in a buffer containing 50 mM potassium phosphate pH 7.5 and 0.1% BSA. After incubation at 24° C. for 1.5 hours, absorbance of the reaction mixture was continuously read at 321 nm to monitor the formation of N′-formylkynurenine by a FULOstar OMEGA plate reader (BMG LABTECH) for 1 hour. The enzymatic activity was determined by measuring the slope of the linear absorbance increase as a function of time. The IC50s are calculated based on remaining enzyme activity in the presence of increasing concentrations of compounds.

[2] = target: cellular IDO1 in HeLa cells (Homo sapiens (Human), UniProt P14902); test: HeLa Cell-Based IDO1 Kyn (Kynurenine) Production Assay; settings: IFN-γ induced IDO1, 48 hours incubation, Kyn absorbance at 480 nm
Procedure, shortened: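 Compounds added to HeLa cells together with IFN-γ (100 ng/mL final) and 0.4 mM L-Trp, 48 h at 37 °C. Kynurenine in TCA-deproteinized supernatant measured colorimetrically with 4-(dimethylamino)benzaldehyde at 480 nm; IC50 from four-parameter logistic fit.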

Sequence of cellular IDO1 in HeLa cells (P14902 whole entry): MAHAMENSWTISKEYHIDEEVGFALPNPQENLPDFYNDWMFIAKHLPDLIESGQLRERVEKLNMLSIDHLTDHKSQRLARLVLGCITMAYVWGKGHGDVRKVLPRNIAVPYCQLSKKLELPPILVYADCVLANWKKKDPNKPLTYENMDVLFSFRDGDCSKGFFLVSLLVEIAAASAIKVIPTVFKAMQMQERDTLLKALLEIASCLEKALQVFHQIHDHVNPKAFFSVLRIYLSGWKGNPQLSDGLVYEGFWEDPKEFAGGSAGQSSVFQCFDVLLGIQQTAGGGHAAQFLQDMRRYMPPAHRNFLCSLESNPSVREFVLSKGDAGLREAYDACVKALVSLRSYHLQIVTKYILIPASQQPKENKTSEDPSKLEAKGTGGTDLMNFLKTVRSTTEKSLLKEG
Sequence of Recombinant IDO1 (P14902 whole entry, species assumed): as the sequence (P14902 whole entry) above

Compound | IC50 [1] | EC50 [2]
Cc1ccc2[nH]c(C[C@H]3CC[C@H](c4ccnc5ccc(F)cc54)CC3)nc2c1 [Example A2a, 6-fluoro-4-((1r,4r)-4-((5-methyl-1H-benzo[d]imidazol-2-yl)methyl)cyclohexyl)quinoline] | > 10000 nM | 241 nM
Cc1ccc2[nH]c(C[C@H]3CC[C@@H](c4ccnc5ccc(F)cc54)CC3)nc2c1 [Example A2b, 6-fluoro-4-((1s,4s)-4-((5-methyl-1H-benzo[d]imidazol-2-yl)methyl)cyclohexyl)quinoline] | > 10000 nM | 53 nM
Fc1ccc2nccc([C@H]3CC[C@H](Cc4nc5cc(C6CC6)ccc5[nH]4)CC3)c2c1 [Example A4a, 4-((1r,4r)-4-((5-cyclopropyl-1H-benzo[d]imidazol-2-yl)methyl)cyclohexyl)-6-fluoroquinoline] | > 10000 nM | 131 nM
Fc1ccc2nccc([C@H]3CC[C@H](Cc4nc5cc(F)c(F)cc5[nH]4)CC3)c2c1 [Example A6a, 4-((1r,4r)-4-((5,6-difluoro-1H-benzo[d]imidazol-2-yl)methyl)cyclohexyl)-6-fluoroquinoline] | > 10000 nM | 141 nM
Cc1cc2nc(C[C@H]3CC[C@H](c4ccnc5ccc(F)cc54)CC3)[nH]c2cc1C [Example A9a, 4-((1r,4r)-4-((5,6-dimethyl-1H-benzo[d]imidazol-2-yl)methyl)cyclohexyl)-6-fluoroquinoline] | > 10000 nM | 186 nM
Cc1cc2nc(C[C@H]3CC[C@@H](c4ccnc5ccc(F)cc54)CC3)[nH]c2cc1C [Example A9b, 4-((1s,4s)-4-((5,6-dimethyl-1H-benzo[d]imidazol-2-yl)methyl)cyclohexyl)-6-fluoroquinoline] | > 10000 nM | 24 nM
Clc1ccc2[nH]c(C[C@H]3CC[C@H](c4ccnc5ccccc54)CC3)nc2c1 [Example A10a, 4-((1r,4r)-4-((5-chloro-1H-benzo[d]imidazol-2-yl)methyl)cyclohexyl)quinoline] | > 10000 nM | 91 nM
Clc1ccc2[nH]c(C[C@H]3CC[C@@H](c4ccnc5ccccc54)CC3)nc2c1 [Example A10b, 4-((1s,4s)-4-((5-chloro-1H-benzo[d]imidazol-2-yl)methyl)cyclohexyl)quinoline] | > 10000 nM | 10 nM
COC(=O)c1ccc2[nH]c(CC3CCC(c4ccnc5ccc(F)cc45)CC3)nc2c1 (stereo not drawn) [Example A13, methyl 2-((4-(6-fluoroquinolin-4-yl)cyclohexyl)methyl)-1H-benzo[d]imidazole-5-carboxylate] | > 10000 nM | 8.4 nM
Clc1ccc2[nH]c(CC3CCC(c4ccc5ccccc5n4)CC3)nc2c1 (stereo not drawn) [Example A18, 2-(4-((5-chloro-1H-benzo[d]imidazol-2-yl)methyl)cyclohexyl)quinoline] | 5300 nM | 50 nM
Clc1ccc2[nH]c(CC3CCC(c4cnc5ccccc5c4)CC3)nc2c1 (stereo not drawn) [Example A19, 3-(4-((5-chloro-1H-benzo[d]imidazol-2-yl)methyl)cyclohexyl)quinoline] | > 10000 nM | 8.2 nM
COc1ccc2[nH]c(CC3CCC(c4ccc5ccccc5n4)CC3)nc2c1 (stereo not drawn) [Example A21, 2-(4-((5-methoxy-1H-benzo[d]imidazol-2-yl)methyl)cyclohexyl)quinoline] | > 10000 nM | 131 nM
Clc1ccc2[nH]c(C[C@H]3CC[C@@H](c4ccc5ncccc5c4)CC3)nc2c1 [Example A23b, 6-((1s,4s)-4-((5-chloro-1H-benzo[d]imidazol-2-yl)methyl)cyclohexyl)quinoline] | 3250 nM | 24 nM
Fc1ccc([C@H]2CC[C@@H](Cc3nc4cc(Cl)ccc4[nH]3)CC2)cc1 [Example A30b, 5-chloro-2-(((1s,4s)-4-(4-fluorophenyl)cyclohexyl)methyl)-1H-benzo[d]imidazole] | > 10000 nM | 39 nM
c1ccc(C2CCC(Cc3nc4ccccc4[nH]3)CC2)cc1 (stereo not drawn) [Example A32, 2-((4-phenylcyclohexyl)methyl)-1H-benzo[d]imidazole] | 8100 nM | 143 nM
FC(F)(F)c1ccc2[nH]c(C[C@H]3CC[C@@H](c4ccccc4)CC3)nc2c1 [Example A33b, 2-(((1s,4s)-4-phenylcyclohexyl)methyl)-5-(trifluoromethyl)-1H-benzo[d]imidazole] | 8200 nM | 8.2 nM

Second part, the compound after the results:

IC50 [1] | EC50 [2] | Compound
> 10000 nM | 8 nM | 4-((1s,4s)-4-((5-chloro-1H-benzo[d]imidazol-2-yl)methyl)cyclohexyl)-6-fluoroquinoline [Example A1b]
> 10000 nM | 51 nM | Fc1ccc2nccc(C3CCC(Cc4nc5cc(Cl)ccc5[nH]4)CC3)c2c1 (stereo not drawn) [Example A1a, 4-(4-((5-chloro-1H-benzo[d]imidazol-2-yl)methyl)cyclohexyl)-6-fluoroquinoline]
> 10000 nM | 13 nM | Fc1ccc2nccc([C@H]3CC[C@@H](Cc4nc5cc(C6CC6)ccc5[nH]4)CC3)c2c1 [Example A4b, 4-((1s,4s)-4-((5-cyclopropyl-1H-benzo[d]imidazol-2-yl)methyl)cyclohexyl)-6-fluoroquinoline]
> 10000 nM | 14 nM | Fc1ccc2nccc([C@H]3CC[C@@H](Cc4nc5cc(F)c(F)cc5[nH]4)CC3)c2c1 [Example A6b, 4-((1s,4s)-4-((5,6-difluoro-1H-benzo[d]imidazol-2-yl)methyl)cyclohexyl)-6-fluoroquinoline]
> 10000 nM | 11 nM | Fc1ccc2nccc(C3CCC(Cc4nc5cc(Cl)c(Cl)cc5[nH]4)CC3)c2c1 (stereo not drawn) [Example A12, 4-(4-((5,6-dichloro-1H-benzo[d]imidazol-2-yl)methyl)cyclohexyl)-6-fluoroquinoline]
> 10000 nM | > 10000 nM | O=C(O)c1ccc2[nH]c(CC3CCC(c4ccnc5ccc(F)cc45)CC3)nc2c1 (stereo not drawn) [Example A14, 2-((4-(6-fluoroquinolin-4-yl)cyclohexyl)methyl)-1H-benzo[d]imidazole-5-carboxylic acid]
> 10000 nM | 89 nM | c1ccc2nc(C3CCC(Cc4nc5ccccc5[nH]4)CC3)ccc2c1 (stereo not drawn) [Example A20, 2-(4-((1H-benzo[d]imidazol-2-yl)methyl)cyclohexyl)quinoline]
> 10 nM | 148 nM | Clc1ccc2[nH]c(CC3CCC(c4cccc5ncccc45)CC3)nc2c1 (stereo not drawn) [Example A22, 5-(4-((5-chloro-1H-benzo[d]imidazol-2-yl)methyl)cyclohexyl)quinoline]
> 10000 nM | 56 nM | Clc1ccc2[nH]c(C[C@H]3CC[C@H](c4ccc5ncccc5c4)CC3)nc2c1 [Example A23a, 6-((1r,4r)-4-((5-chloro-1H-benzo[d]imidazol-2-yl)methyl)cyclohexyl)quinoline]
> 10000 nM | 44 nM | Fc1ccc([C@H]2CC[C@H](Cc3nc4cc(Cl)ccc4[nH]3)CC2)cc1 [Example A30a, 5-chloro-2-(((1r,4r)-4-(4-fluorophenyl)cyclohexyl)methyl)-1H-benzo[d]imidazole]
> 10000 nM | > 10000 nM | FC(F)(F)c1ccc2[nH]c(C[C@H]3CC[C@H](c4ccccc4)CC3)nc2c1 [Example A33a, 2-(((1r,4r)-4-phenylcyclohexyl)methyl)-5-(trifluoromethyl)-1H-benzo[d]imidazole]
